Laboratory results reported in patent US8304447B2, “2-acylaminopropoanol-type glucosylceramide synthase inhibitors” (Genzyme Corporation, priority 2007, dated 2012).
Read-outs that look alike come from different tables or passages of the source.

System: GM3
Assay: GM3 Elisa assay
Assay type: cell-based
Conditions: B16-FO cells, read-out: IC50_uM_Mean
In short: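 Murine B16-FO melanoma cells attached 6 h on collagen, then exposed to compounds for 2 days at 37 °C. After formaldehyde fixation, cell-surface GM3 (NeuAc) was detected by anti-GM3 IgM and peroxidase anti-mouse IgM with Quantablu fluorescence (Ex 325/Em 420).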

[1] = 48 h, Table 1, 2 days incubation
[2] = 48 h, Table 2, 2 days incubation

CCC(=O)c1ccc(OCCC(=O)N[C@H](CN2CCCC2)[C@H](O)c2ccc3c(c2)OCCO3)cc1 [Compound 189, N-((1R,2R)-1-(2,3-dihydrobenzo[b][1,4]dioxin-6-yl)-1-hydroxy-3-(pyrrolidin-1-yl)propan-2-yl)-3-(4-propionylphenoxy)propanamide (2R,3R)-2,3-dihydroxysuccinate]
IC50 [1]: 100 to 1000 nM

COc1ccc(C(=O)CCCCC(=O)N[C@H](CN2CCCC2)[C@H](O)c2ccc(OCCCOc3ccc(C)cc3)cc2)cc1 [Compound 430]
IC50 (Table 3 (IC 50 Values)): ≤ 100 nM

CCCCN(CCCC)C[C@@H](NC(=O)CCCCCC(=O)c1ccc(OC)cc1)C(O)c1ccc2c(c1)OCCO2 (stereo partly drawn) [Compound 459]
IC50 (Table 3 (IC 50 Values)): 3000 to 10000 nM

O=C(CCCCNC(=O)c1ccccc1)N[C@H](CN1CCCC1)[C@H](O)c1ccc2c(c1)OCCO2 [Compound 104, N-(5-((1R,2R)-1-(2,3-dihydrobenzo[β][1,4]dioxin-6-yl)-1-hydroxy-3-(pyrrolidin-1-yl)propan-2-ylamino)-5-oxopentyl)benzamide]
IC50 [1]: 100 to 1000 nM

COc1ccc(C(=O)CCCCC(=O)N[C@H](CN2CCCC2)[C@H](O)c2ccc(Cl)s2)cc1 [Compound 494]
IC50 (Table 3 (IC 50 Values)): 100 to 1000 nM

COc1ccc(C(=O)CCCCC(=O)N[C@H](CN2CCCC2)[C@H](O)c2ccc(OC)c(F)c2)cc1 [Compound 344]
IC50 (Table 3 (IC 50 Values)): ≤ 100 nM

O=C(Cc1ccc(OC(F)(F)F)cc1)NC(CN1CCCC1)[C@H](O)c1ccc(Cl)s1 (stereo partly drawn) [Compound 492]
IC50 (Table 3 (IC 50 Values)): 3000 to 10000 nM

COc1ccc(C(=O)CCCC(=O)N[C@H](CN2CCCC2)[C@H](O)c2ccc(-c3ccccc3)cc2)cc1 [Compound 696]
IC50 (Table 3 (IC 50 Values)): 1000 to 3000 nM

CC(=O)O[C@H](c1ccc2c(c1)OCCO2)[C@@H](CN1CCCC1)NC(=O)NCc1ccccc1 [Compound 243]
IC50 [2]: ≤ 100 nM

CCCCCCCC(=O)N[C@H](CCN1CCCC1)[C@H](O)c1ccc2c(c1)OCCO2 [Compound 687]
IC50 (Table 3 (IC 50 Values)): 3000 to 10000 nM

O=C(CCOc1ccc(F)cc1)N[C@H](CN1CC[C@@H](F)C1)[C@H](O)c1ccc2c(c1)OCCO2 [Compound 568]
IC50 (Table 3 (IC 50 Values)): 100 to 1000 nM

O=C(CCOc1ccc(F)cc1)N[C@H](CN1CCCC1)[C@H](O)c1ccc2c(c1)OCCO2 [Compound 58, N-((1R,2R)-1-(2,3-dihydrobenzo[β][1,4]dioxin-6-yl)-1-hydroxy-3-(pyrrolidin-1-yl)propan-2-yl)-3-(4-fluorophenoxy)propanamide]
IC50 [1]: 100 to 1000 nM

COc1ccc(CN(C(=O)CCCCC(=O)c2ccc(OC)cc2)[C@H](CN2CCCC2)[C@H](O)c2ccc(O)cc2)cc1 [Compound 426]
IC50 (Table 3 (IC 50 Values)): 3000 to 10000 nM

CCCOC1CC(C[C@@H](NC(=O)CCOc2ccc(OC)cc2)[C@H](O)c2ccc3c(c2)OCCO3)C1 (stereo partly drawn) [Compound 597]
IC50 (Table 3 (IC 50 Values)): 3000 to 10000 nM

CCCCCCCC(=O)N[C@H](CN1C[C@@H]2CC[C@H]1C2)[C@H](O)c1ccc2c(c1)OCCO2 [Compound 545]
IC50 (Table 3 (IC 50 Values)): 100 to 1000 nM

CCCCCCCC(=O)N[C@H](CN1CC(F)(F)C1)[C@H](O)c1ccc2c(c1)OCCO2 [Compound 623]
IC50 (Table 3 (IC 50 Values)): 3000 to 10000 nM

CCCCCCCCCCCCCCCC(=O)N[C@H](CN1CCCC1)[C@H](O)CCCCCCC [Compound 312]
IC50 [2]: 100 to 1000 nM

O=C(COC1CCCCC1)N[C@H](CN1CCCC1)[C@H](O)c1ccc2c(c1)OCCO2 [Compound 645]
IC50 (Table 3 (IC 50 Values)): 3000 to 10000 nM

COc1ccc(OCCC(=O)N(Cc2cccc(-c3noc(C)n3)c2)[C@H](CN2CCCC2)[C@H](O)c2ccc(O)cc2)cc1 [Compound 718]
IC50 (Table 3 (IC 50 Values)): 3000 to 10000 nM

Cc1ccc(OCCC(=O)N[C@H](CN2CC[C@@H](F)C2)[C@H](O)c2ccc(OC(C)C)cc2)cc1 [Compound 448]
IC50 (Table 3 (IC 50 Values)): 100 to 1000 nM

O=C(N[C@H](CN1CCCC1)[C@H](O)c1ccc2c(c1)OCCO2)[C@@H](O)Cc1ccccc1 [Compound 25, (S)—N-((1R,2R)-1-(2,3-dihydrobenzo[β][1,4]dioxin-6-yl)-1-hydroxy-3-(pyrrolidin-1-yl)propan-2-yl)-2-hydroxy-3-phenylpropanamide]
IC50 [1]: 100 to 1000 nM

COc1ccc(OCCC(=O)N[C@H](CN2CCC2)[C@H](O)c2ccc3c(c2)OCCO3)cc1 [Compound 599]
IC50 (Table 3 (IC 50 Values)): 1000 to 3000 nM

COc1ccc([C@@H](O)[C@@H](CN2CCCC2)NC(=O)CCCC(=O)c2ccc(OC(C)C)cc2)cc1 [Compound 270, 5-(4-Isopropoxy-phenyl)-5-oxo-pentanoic acid [2-hydroxy-2-(4-methoxy-phenyl)-1-pyrrolidin-1-ylmethyl-ethyl]amide]
IC50 [2]: ≤ 100 nM

COc1ccc(C(=O)CCCCCC(=O)N[C@H](CN2CCCC2)[C@H](O)c2ccc(Cl)s2)cc1 [Compound 358]
IC50 (Table 3 (IC 50 Values)): ≤ 100 nM

O=C(COc1ccc(Cl)c(Cl)c1)N[C@H](CN1CCCC1)[C@H](O)c1ccc2c(c1)OCCO2 [Compound 87, 2-(3,4-dichlorophenoxy)-N-((1R,2R)-1-(2,3-dihydrobenzo[β][1,4]dioxin-6-yl)-1-hydroxy-3-(pyrrolidin-1-yl)propan-2-yl)acetamide]
IC50 [1]: ≤ 100 nM

C[C@@H](NC(=O)N[C@H](CN1CCCC1)[C@H](O)c1ccc2c(c1)OCCO2)c1ccccc1 [Compound 286, 1-((1R,2R)-1-(2,3-dihydrobenzo[β][1,4]dioxin-6-yl)-1-hydroxy-3-(pyrrolidin-1-yl)propan-2-yl)-3-(®-1-phenylethyl)urea]
IC50 [2]: 3000 to 10000 nM

COc1ccc(C(=O)CCCCCC(=O)NCCN2CCCC2)cc1 [Compound 536]
IC50 (Table 3 (IC 50 Values)): 3000 to 10000 nM

COc1ccc(OCCC(=O)N[C@H](CN2CCCC2)[C@H](O)c2ccc(OC)c(F)c2)cc1 [Compound 341]
IC50 (Table 3 (IC 50 Values)): ≤ 100 nM

O=C(CCCCCC(=O)c1ccc(F)cc1)N[C@H](CN1C2CCC1CC2)[C@H](O)c1ccc2c(c1)OCCO2 [Compound 475]
IC50 (Table 3 (IC 50 Values)): ≤ 100 nM

O=C(Nc1cccc(C(F)(F)F)c1)N[C@H](CN1CCCC1)[C@H](O)c1ccc2c(c1)OCCO2 [Compound 68, 1-((1R,2R)-1-(2,3-dihydrobenzo[β][1,4]dioxin-6-yl)-1-hydroxy-3-(pyrrolidin-1-yl)propan-2-yl)-3-(3-(trifluoromethyl)phenyl)urea]
IC50 [1]: 100 to 1000 nM

COc1ccc(CCNC(=O)N[C@H](CN2CCCC2)[C@H](O)c2ccc3c(c2)OCCO3)cc1 [Compound 480]
IC50 (Table 3 (IC 50 Values)): 1000 to 3000 nM

O=C(CCCCCC(F)(F)C(F)(F)F)N[C@H](CN1CCCC1)[C@H](O)c1ccc2c(c1)OCCO2 [Compound 621]
IC50 (Table 3 (IC 50 Values)): 1000 to 3000 nM

O=C(CCCOc1ccc(F)cc1)N[C@@H](CN1C2CCC1CC2)C(O)c1ccc2c(c1)OCCO2 (stereo partly drawn) [Compound 472]
IC50 (Table 3 (IC 50 Values)): 100 to 1000 nM

COc1ccc(OCCC(=O)N[C@H](CN2CC[C@@H](F)C2)[C@H](O)c2ccc(OC(C)C)cc2)cc1 [Compound 452]
IC50 (Table 3 (IC 50 Values)): 100 to 1000 nM

COc1ccc(C(=O)CCCCC(=O)N[C@H](CN2CCCC2)[C@H](O)c2ccc(OCCOc3ccccc3)cc2)cc1 [Compound 418]
IC50 (Table 3 (IC 50 Values)): ≤ 100 nM

COc1ccc(C(=O)CCCCCC(=O)N[C@H](CN2CCCC2)[C@H](O)c2ccc(OC)c(F)c2)cc1 [Compound 345]
IC50 (Table 3 (IC 50 Values)): ≤ 100 nM

CCCCc1ccc([C@@H](O)[C@@H](CN2CCCC2)NC(=O)CCOc2ccc(OC)cc2)cc1 [Compound 260]
IC50 [2]: ≤ 100 nM

O=C(CCCCCNS(=O)(=O)c1ccc2c(c1)OCCO2)N[C@H](CN1CCCC1)[C@H](O)c1ccc2c(c1)OCCO2 [Compound 102, N-((1R,2R)-1-(2,3-dihydrobenzo[β][1,4]dioxin-6-yl)-1-hydroxy-3-(pyrrolidin-1-yl)propan-2-yl)-6-(2,3-dihydrobenzo[β][1,4]dioxine-6-sulfonamido)hexanamide]
IC50 [1]: 1000 to 3000 nM

COc1ccc(C(=O)CCCCC(=O)N[C@H](CN2CCCC2)[C@H](O)c2ccc(OC)cc2OC)cc1 [Compound 353]
IC50 (Table 3 (IC 50 Values)): 100 to 1000 nM

CCCCCCCC(=O)N[C@H](CN1CCCC1)[C@H](O)c1ccc(C(F)(F)F)cc1 [Compound 488]
IC50 (Table 3 (IC 50 Values)): 1000 to 3000 nM

COc1ccc(OCCCN(C(=O)CCCCC(=O)c2ccc(OC)cc2)[C@H](CN2CCCC2)[C@H](O)c2ccc(O)cc2)cc1 [Compound 429]
IC50 (Table 3 (IC 50 Values)): 3000 to 10000 nM

COc1ccc(C(=O)CCCC(=O)N[C@H](CN2CCCC2)[C@H](O)c2ccc3c(c2)OCCO3)cc1 [Compound 191, N-((1R,2R)-1-(2,3-dihydrobenzo[β][1,4]dioxin-6-yl)-1-hydroxy-3-(pyrrolidin-1-yl)propan-2-yl)-5-(4-methoxyphenyl)-5-oxopentanamide (2R,3R)-2,3-dihydroxysuccinate]
IC50 [1]: ≤ 100 nM

CCC(C)NC[C@@H](NC(=O)CCCCCC(=O)c1ccc(OC)cc1)C(O)c1ccc2c(c1)OCCO2 (stereo partly drawn) [Compound 461]
IC50 (Table 3 (IC 50 Values)): 100 to 1000 nM

O=C(Cc1cccc(C(F)(F)F)c1)N[C@H](CN1CCCC1)[C@H](O)c1ccc2c(c1)OCCO2 [Compound 51, N-((1R,2R)-1-(2,3-dihydrobenzo[β][1,4]dioxin-6-yl)-1-hydroxy-3-(pyrrolidin-1-yl)propan-2-yl)-2-(3-(trifluoromethyl)phenyl)acetamide]
IC50 [1]: 100 to 1000 nM

CCCCCCCC(=O)N[C@H](CN1CCCC1)[C@H](O)/C=C/c1ccccc1 [Compound 397]
IC50 (Table 3 (IC 50 Values)): 3000 to 10000 nM

O=C(CCc1ccc(C(F)(F)F)cc1)N[C@H](CN1CCCC1)[C@H](O)c1ccc2c(c1)OCCO2 [Compound 96, N-((1R,2R)-1-(2,3-dihydrobenzo[β][1,4]dioxin-6-yl)-1-hydroxy-3-(pyrrolidin-1-yl)propan-2-yl)-3-(4-(trifluoromethyl)phenyl)propanamide]
IC50 [1]: ≤ 100 nM

O=C(CCCN1Cc2ccccc2C1=O)N[C@H](CN1CCCC1)[C@H](O)c1ccc2c(c1)OCCO2 [Compound 485]
IC50 (Table 3 (IC 50 Values)): 3000 to 10000 nM

COc1ccc(C(=O)CCCC(=O)N[C@H](CN2CCCC2)[C@H](O)c2ccc3c(c2)OCCO3)cc1OC [Compound 282, N-((1R,2R)-1-(2,3-dihydrobenzo[β][1,4]dioxin-6-yl)-1-hydroxy-3-(pyrrolidin-1-yl)propan-2-yl)-5-(3,4-dimethoxyphenyl)-5-oxopentanamide]
IC50 [2]: 1000 to 3000 nM

CCCCCCCC(=O)N[C@H](CN1CCCC1)[C@H](O)c1ccc(C)c(F)c1 [Compound 348]
IC50 (Table 3 (IC 50 Values)): 100 to 1000 nM

CCCCCCCC(=O)N[C@H](CN1CCC(C)CC1)[C@H](O)c1ccc2c(c1)OCCO2 [Compound 611]
IC50 (Table 3 (IC 50 Values)): 3000 to 10000 nM

COc1ccc(C(=O)CCCCC(=O)N[C@H](CN2CCCC2)[C@H](O)c2ccc(-c3ccccc3)cc2)cc1 [Compound 694]
IC50 (Table 3 (IC 50 Values)): 100 to 1000 nM
